Publication doi:10.1101/2020.06.11.145995v1 (biorxiv, 2020)
Where two headings read alike, the source gives them in different places.

Legend:
Test in all cases: biochemical
JNK3 = JNK3 (Homo sapiens, UniProt P53779)
FGFR3(G697C) = FGFR3(G697C) (Homo sapiens, UniProt P22607, G697C)
CAMK2B = CAMK2B (Homo sapiens, UniProt Q13554)
KIT = KIT (Homo sapiens, UniProt P10721)
MTOR = MTOR (Homo sapiens, UniProt P42345)
MUSK = MUSK (Homo sapiens, UniProt O15146)
FLT1 = FLT1 (Homo sapiens, UniProt P17948)
DCAMKL1 = DCAMKL1 (Homo sapiens, UniProt O15075)
CIT = CIT (Homo sapiens, UniProt O14578)
MST2 = MST2 (Homo sapiens, UniProt Q13188)
ICK = ICK (Homo sapiens, UniProt Q9UPZ9)
BRAF = BRAF (Homo sapiens, UniProt P15056)
INSR = INSR (Homo sapiens, UniProt P06213)
Chain of INSR (P06213 whole entry): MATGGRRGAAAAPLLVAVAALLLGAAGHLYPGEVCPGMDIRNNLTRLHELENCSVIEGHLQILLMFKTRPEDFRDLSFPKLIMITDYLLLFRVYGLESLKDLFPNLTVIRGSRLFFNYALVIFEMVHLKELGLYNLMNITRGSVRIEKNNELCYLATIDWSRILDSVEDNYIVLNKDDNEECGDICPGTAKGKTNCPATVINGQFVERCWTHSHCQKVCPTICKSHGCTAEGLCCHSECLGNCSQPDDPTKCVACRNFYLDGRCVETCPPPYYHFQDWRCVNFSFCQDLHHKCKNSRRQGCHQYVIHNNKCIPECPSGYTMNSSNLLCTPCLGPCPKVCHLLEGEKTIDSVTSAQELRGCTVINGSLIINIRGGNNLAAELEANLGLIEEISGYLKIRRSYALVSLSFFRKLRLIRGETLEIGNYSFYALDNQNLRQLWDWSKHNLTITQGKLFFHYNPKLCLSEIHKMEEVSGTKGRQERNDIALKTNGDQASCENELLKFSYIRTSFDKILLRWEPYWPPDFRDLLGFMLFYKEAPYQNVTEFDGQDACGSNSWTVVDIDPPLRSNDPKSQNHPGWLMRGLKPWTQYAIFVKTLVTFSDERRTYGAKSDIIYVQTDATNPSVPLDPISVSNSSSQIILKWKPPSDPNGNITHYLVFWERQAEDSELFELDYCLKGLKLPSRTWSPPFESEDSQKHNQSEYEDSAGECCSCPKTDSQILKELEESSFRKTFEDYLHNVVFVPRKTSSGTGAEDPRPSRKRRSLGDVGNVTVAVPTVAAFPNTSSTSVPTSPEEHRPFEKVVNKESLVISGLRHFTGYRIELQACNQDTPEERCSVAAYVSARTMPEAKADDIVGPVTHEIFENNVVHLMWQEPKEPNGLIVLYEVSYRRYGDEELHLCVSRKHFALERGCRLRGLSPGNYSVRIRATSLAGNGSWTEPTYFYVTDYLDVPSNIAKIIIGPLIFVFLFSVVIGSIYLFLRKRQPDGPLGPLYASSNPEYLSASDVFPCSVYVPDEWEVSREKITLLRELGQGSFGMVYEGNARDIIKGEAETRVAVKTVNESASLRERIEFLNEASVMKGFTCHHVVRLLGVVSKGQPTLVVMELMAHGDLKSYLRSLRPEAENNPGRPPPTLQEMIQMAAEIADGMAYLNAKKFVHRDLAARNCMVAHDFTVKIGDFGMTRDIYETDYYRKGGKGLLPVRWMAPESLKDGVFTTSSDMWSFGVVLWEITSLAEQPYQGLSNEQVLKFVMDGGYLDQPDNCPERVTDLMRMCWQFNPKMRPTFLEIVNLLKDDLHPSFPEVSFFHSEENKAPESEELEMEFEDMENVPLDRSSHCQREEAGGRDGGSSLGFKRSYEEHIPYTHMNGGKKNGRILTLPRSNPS

CDC2L2 = CDC2L2 (Homo sapiens, UniProt Q9UQ88)
GSK3A = GSK3A (Homo sapiens, UniProt P49840)
Chain of GSK3A (P49840 whole entry): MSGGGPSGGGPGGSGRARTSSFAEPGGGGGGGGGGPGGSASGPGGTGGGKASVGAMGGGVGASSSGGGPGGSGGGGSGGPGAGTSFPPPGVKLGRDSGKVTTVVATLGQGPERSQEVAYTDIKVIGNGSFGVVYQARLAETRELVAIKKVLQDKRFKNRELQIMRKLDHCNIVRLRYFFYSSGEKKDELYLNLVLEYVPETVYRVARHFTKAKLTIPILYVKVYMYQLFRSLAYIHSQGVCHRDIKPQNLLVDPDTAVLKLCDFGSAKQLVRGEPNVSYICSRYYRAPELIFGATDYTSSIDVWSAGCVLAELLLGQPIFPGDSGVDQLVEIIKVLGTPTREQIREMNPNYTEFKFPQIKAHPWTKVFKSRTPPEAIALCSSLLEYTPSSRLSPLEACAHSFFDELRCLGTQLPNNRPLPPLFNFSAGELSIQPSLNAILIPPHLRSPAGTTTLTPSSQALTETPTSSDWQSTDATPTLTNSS

ADCK3 = ADCK3 (Homo sapiens, UniProt Q8NI60)
MYLK4 = MYLK4 (Homo sapiens, UniProt Q86YV6)
HIPK3 = HIPK3 (Homo sapiens, UniProt Q9H422)
LKB1 = LKB1 (Homo sapiens, UniProt Q15831)
MARK1 = MARK1 (Homo sapiens, UniProt Q9P0L2)
NUAK1 = NUAK1 (Homo sapiens, UniProt O60285)
Chain of NUAK1 (O60285 whole entry): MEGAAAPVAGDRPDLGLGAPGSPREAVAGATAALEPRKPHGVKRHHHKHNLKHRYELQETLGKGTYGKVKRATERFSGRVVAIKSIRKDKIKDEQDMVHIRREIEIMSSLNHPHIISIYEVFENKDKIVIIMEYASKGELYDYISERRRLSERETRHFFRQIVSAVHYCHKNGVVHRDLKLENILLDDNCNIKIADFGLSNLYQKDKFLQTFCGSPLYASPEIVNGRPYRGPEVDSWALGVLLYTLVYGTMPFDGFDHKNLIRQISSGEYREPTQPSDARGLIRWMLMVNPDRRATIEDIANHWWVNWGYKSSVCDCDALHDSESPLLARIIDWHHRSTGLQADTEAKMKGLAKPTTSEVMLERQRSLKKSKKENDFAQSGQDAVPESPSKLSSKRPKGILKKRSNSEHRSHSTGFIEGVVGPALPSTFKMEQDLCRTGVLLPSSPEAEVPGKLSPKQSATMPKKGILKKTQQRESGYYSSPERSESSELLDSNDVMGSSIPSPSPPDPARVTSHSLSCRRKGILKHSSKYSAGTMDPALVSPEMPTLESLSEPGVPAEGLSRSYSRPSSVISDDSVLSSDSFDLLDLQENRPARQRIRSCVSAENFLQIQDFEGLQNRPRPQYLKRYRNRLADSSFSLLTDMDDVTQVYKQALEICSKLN

AURKC = AURKC (Homo sapiens, UniProt Q9UQB9)
Chain of AURKC (Q9UQB9 whole entry): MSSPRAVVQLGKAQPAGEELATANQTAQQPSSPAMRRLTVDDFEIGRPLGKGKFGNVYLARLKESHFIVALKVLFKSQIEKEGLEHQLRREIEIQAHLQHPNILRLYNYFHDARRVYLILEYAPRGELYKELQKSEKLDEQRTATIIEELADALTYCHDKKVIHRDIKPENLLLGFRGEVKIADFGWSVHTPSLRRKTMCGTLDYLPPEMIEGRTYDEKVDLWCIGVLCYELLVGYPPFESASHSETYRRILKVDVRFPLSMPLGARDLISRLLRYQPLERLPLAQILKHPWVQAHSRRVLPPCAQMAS

CAMK2A = CAMK2A (Homo sapiens, UniProt Q9UQM7)
IRAK4 = IRAK4 (Homo sapiens, UniProt Q9NWZ3)
Chain of IRAK4 (Q9NWZ3 whole entry): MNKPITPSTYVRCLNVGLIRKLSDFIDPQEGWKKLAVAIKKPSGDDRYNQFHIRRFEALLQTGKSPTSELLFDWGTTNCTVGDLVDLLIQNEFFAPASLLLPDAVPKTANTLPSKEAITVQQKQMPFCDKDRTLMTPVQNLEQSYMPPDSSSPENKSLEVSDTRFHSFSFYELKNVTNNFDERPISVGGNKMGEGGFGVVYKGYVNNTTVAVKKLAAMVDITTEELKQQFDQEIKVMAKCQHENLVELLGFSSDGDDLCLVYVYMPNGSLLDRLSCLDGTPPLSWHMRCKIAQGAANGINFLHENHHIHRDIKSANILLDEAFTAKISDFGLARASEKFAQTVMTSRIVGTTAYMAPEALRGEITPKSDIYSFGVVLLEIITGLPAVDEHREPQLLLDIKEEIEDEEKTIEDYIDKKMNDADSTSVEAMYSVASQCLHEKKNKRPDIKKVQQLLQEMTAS

MEK4 = MEK4 (Homo sapiens, UniProt P45985)
KIT(L576P) = KIT(L576P) (Homo sapiens, UniProt P10721, L576P)
IRAK1 = IRAK1 (Homo sapiens, UniProt P51617)
CSNK1G3 = CSNK1G3 (Homo sapiens, UniProt Q9Y6M4)
CSNK1D = CSNK1D (Homo sapiens, UniProt P48730)
Chain of CSNK1D (P48730 whole entry): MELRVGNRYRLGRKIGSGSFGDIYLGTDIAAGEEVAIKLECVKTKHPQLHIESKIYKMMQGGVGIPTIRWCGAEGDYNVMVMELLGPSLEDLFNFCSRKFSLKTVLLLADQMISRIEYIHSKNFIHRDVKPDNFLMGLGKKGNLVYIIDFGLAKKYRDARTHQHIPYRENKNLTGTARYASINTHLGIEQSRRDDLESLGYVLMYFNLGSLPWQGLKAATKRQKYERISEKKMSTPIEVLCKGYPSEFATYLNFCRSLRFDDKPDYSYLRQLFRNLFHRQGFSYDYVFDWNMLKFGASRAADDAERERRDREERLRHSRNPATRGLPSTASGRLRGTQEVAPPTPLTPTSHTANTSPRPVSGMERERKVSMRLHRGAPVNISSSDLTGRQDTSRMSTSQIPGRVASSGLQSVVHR

LCK = LCK (Homo sapiens, UniProt P06239)
[1] = read-out: HYJ-2-002-1 (1uM) % control
[2] = read-out: CPT-1-70-1 (1uM) % control

Chain of FLT1 (P17948 whole entry): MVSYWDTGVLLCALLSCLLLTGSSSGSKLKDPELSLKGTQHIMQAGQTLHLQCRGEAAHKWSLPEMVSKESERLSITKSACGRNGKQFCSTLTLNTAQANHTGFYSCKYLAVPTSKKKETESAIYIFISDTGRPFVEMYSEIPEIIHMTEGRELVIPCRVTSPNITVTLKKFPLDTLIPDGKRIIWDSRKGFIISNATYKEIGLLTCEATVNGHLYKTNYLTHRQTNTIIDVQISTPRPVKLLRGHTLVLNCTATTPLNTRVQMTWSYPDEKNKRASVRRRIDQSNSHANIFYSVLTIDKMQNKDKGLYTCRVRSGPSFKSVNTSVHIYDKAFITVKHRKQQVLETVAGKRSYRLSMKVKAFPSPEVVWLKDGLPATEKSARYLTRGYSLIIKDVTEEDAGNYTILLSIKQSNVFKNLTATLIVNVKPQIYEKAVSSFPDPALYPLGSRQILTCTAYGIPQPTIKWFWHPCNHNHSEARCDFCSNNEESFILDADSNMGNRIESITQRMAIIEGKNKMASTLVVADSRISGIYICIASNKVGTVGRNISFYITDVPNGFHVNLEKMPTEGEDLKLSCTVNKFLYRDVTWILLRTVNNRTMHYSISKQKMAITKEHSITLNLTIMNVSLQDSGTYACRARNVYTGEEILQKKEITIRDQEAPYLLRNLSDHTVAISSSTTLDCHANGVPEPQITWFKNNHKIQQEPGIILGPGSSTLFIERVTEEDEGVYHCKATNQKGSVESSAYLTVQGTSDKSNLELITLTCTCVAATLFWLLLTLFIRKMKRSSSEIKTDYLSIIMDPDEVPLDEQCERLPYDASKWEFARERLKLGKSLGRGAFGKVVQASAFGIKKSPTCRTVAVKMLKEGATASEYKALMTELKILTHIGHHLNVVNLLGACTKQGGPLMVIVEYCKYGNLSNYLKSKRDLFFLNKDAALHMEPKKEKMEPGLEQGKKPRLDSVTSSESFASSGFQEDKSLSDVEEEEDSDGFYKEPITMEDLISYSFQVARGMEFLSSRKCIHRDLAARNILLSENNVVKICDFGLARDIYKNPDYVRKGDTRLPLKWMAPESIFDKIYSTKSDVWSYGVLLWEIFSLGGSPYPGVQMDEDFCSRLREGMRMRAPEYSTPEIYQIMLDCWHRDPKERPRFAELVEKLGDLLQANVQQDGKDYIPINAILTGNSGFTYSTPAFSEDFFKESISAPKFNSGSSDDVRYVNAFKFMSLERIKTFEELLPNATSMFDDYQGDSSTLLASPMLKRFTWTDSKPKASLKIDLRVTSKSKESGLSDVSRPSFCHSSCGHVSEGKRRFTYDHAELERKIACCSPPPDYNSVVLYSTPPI

Question: Which remaining activity at 1 µM (JNK3; [1]) does the source give for `CCN1CCN(Cc2ccc(NC(=O)c3ccc(C)c(CCc4cnc5[nH]ccc5c4OC)c3)cc2C(F)(F)F)CC1` [HYJ-2-002-1] here?
Answer: 75%

Question: What about the remaining activity at 1 µM (FGFR3(G697C); [1]) of the same compound?
Answer: 29%

Question: What about the remaining activity at 1 µM (CAMK2B; [1]) of the same compound?
Answer: 74%

Question: And the remaining activity at 1 µM (KIT; [1])?
Answer: 0%

Question: What about the remaining activity at 1 µM (MTOR; [1]) of the same compound?
Answer: 93%

Question: And the remaining activity at 1 µM (MUSK; [1])?
Answer: 1.4%

Question: What about the remaining activity at 1 µM (FLT1; [1]) of the same compound?
Answer: 10%

Question: And the remaining activity at 1 µM (DCAMKL1; [1])?
Answer: 100%

Question: And the remaining activity at 1 µM (CIT; [1])?
Answer: 6.7%

Question: What about the remaining activity at 1 µM (MST2; [1]) of the same compound?
Answer: 83%

Question: And the remaining activity at 1 µM (ICK; [1])?
Answer: 100%

Question: And the remaining activity at 1 µM (BRAF; [1])?
Answer: 3.7%

Question: And the remaining activity at 1 µM (INSR; [1])?
Answer: 92%

Question: What about the remaining activity at 1 µM (CDC2L2; [1]) of the same compound?
Answer: 76%

Question: And the remaining activity at 1 µM (GSK3A; [1])?
Answer: 78%

Question: And the remaining activity at 1 µM (ADCK3; [1])?
Answer: 100%

Question: And the remaining activity at 1 µM (MYLK4; [1])?
Answer: 100%

Question: What about the remaining activity at 1 µM (HIPK3; [1]) of the same compound?
Answer: 55%

Question: And the remaining activity at 1 µM (LKB1; [1])?
Answer: 100%

Question: And the remaining activity at 1 µM (MARK1; [1])?
Answer: 100%

Question: What about the remaining activity at 1 µM (NUAK1; [1]) of the same compound?
Answer: 65%

Question: What about the remaining activity at 1 µM (AURKC; [1]) of the same compound?
Answer: 80%

Question: What about the remaining activity at 1 µM (CAMK2A; [1]) of the same compound?
Answer: 100%

Question: And the remaining activity at 1 µM (IRAK4; [1])?
Answer: 94%

Question: And the remaining activity at 1 µM (MEK4; [1])?
Answer: 100%

Question: And the remaining activity at 1 µM (KIT(L576P); [1])?
Answer: 82%

Question: What about the remaining activity at 1 µM (IRAK1; [1]) of the same compound?
Answer: 62%

Question: And the remaining activity at 1 µM (CSNK1G3; [1])?
Answer: 65%

Question: What about the remaining activity at 1 µM (CSNK1D; [1]) of the same compound?
Answer: 73%

Question: And the remaining activity at 1 µM (LCK; [1])?
Answer: 1.1%

Question: `CN1CCN(c2ccc(Nc3nc(Oc4ccc(NC(=O)CCl)cc4)c4cc[nH]c4n3)cc2)CC1` [CPT1-70-1] was tested. Which remaining activity at 1 µM (JNK3; [2]) did it give?
Answer: 4.6%

Question: What about the remaining activity at 1 µM (FGFR3(G697C); [2]) of the same compound?
Answer: 34%

Question: What about the remaining activity at 1 µM (CAMK2B; [2]) of the same compound?
Answer: 100%

Question: And the remaining activity at 1 µM (KIT; [2])?
Answer: 20%

Question: And the remaining activity at 1 µM (MTOR; [2])?
Answer: 66%

Question: What about the remaining activity at 1 µM (MUSK; [2]) of the same compound?
Answer: 8.8%

Question: And the remaining activity at 1 µM (FLT1; [2])?
Answer: 54%

Question: What about the remaining activity at 1 µM (DCAMKL1; [2]) of the same compound?
Answer: 100%

Question: What about the remaining activity at 1 µM (CIT; [2]) of the same compound?
Answer: 26%

Question: What about the remaining activity at 1 µM (MST2; [2]) of the same compound?
Answer: 86%

Question: What about the remaining activity at 1 µM (ICK; [2]) of the same compound?
Answer: 100%

Question: And the remaining activity at 1 µM (BRAF; [2])?
Answer: 87%

Question: And the remaining activity at 1 µM (INSR; [2])?
Answer: 17%

Question: What about the remaining activity at 1 µM (CDC2L2; [2]) of the same compound?
Answer: 100%

Question: And the remaining activity at 1 µM (GSK3A; [2])?
Answer: 100%

Question: What about the remaining activity at 1 µM (ADCK3; [2]) of the same compound?
Answer: 100%

Question: And the remaining activity at 1 µM (MYLK4; [2])?
Answer: 92%

Question: What about the remaining activity at 1 µM (HIPK3; [2]) of the same compound?
Answer: 74%

Question: What about the remaining activity at 1 µM (LKB1; [2]) of the same compound?
Answer: 76%

Question: What about the remaining activity at 1 µM (MARK1; [2]) of the same compound?
Answer: 2.1%

Question: What about the remaining activity at 1 µM (NUAK1; [2]) of the same compound?
Answer: 9.3%

Question: What about the remaining activity at 1 µM (AURKC; [2]) of the same compound?
Answer: 51%

Question: And the remaining activity at 1 µM (CAMK2A; [2])?
Answer: 95%

Question: What about the remaining activity at 1 µM (IRAK4; [2]) of the same compound?
Answer: 94%

Question: And the remaining activity at 1 µM (MEK4; [2])?
Answer: 35%

Question: And the remaining activity at 1 µM (KIT(L576P); [2])?
Answer: 8.9%

Question: What about the remaining activity at 1 µM (IRAK1; [2]) of the same compound?
Answer: 53%

Question: What about the remaining activity at 1 µM (CSNK1G3; [2]) of the same compound?
Answer: 2.6%

Question: And the remaining activity at 1 µM (CSNK1D; [2])?
Answer: 43%

Question: What about the remaining activity at 1 µM (LCK; [2]) of the same compound?
Answer: 32%
